Measurements from publication PMC13242511, “Disrupting Notch signalling by a small molecule inhibiting dihydroorotate dehydrogenase activity” (Scientific Reports, 2026).
Where “and” joins values, the source holds several entries; their conditions need not be identical. Equal entries are not always repeated.

How the values were obtained:
Format in all cases: cell-based
[1] = tested on: TALL-1 cells; assay: Growth inhibition, metabolic activity (CellTiter-Glo); conditions: Homo sapiens; TALL-1, six days; read-out: approximated IC50, growth (metabolic activity)
Text: (§1) We next investigated whether compounds A-E affected growth and viability of cell lines from T-cell acute lymphoblastic leukaemia (T-ALL) and breast cancer, two tumour types in which elevated Notch signalling has been implicated in tumorigenesis. […] When testing analogues of compounds B and C, five of the seven B analogues and one of the two C analogues produced dose–response curves and IC50s, which however were higher compared to the original hits (Supplemental Fig. 5A; IC50s are presented in Supplemental Table 6).
(§2) Compounds were spotted on white 384-well tissue culture plates (Greiner, cat #781080) using an Echo 525 Acoustic liquid handler (Labcyte). Cells were grown to 80% confluence, detached if required, counted and 20 µl containing 2000–4000 cells per well was then seeded in each well and cultivated for three (4,000 cells seeded) and six days (2,000 cells seeded). […] Luciferase activity (reading out metabolic activity) was determined using the CellTiter-Glo 2.0 kit (CTG, Promega, cat #G9242) following the manufacturer’s instructions and luminescence was measured on a SpectraMaxi3 or Varioscan plate reader (Molecular Devices, Thermofisher).

[2] = tested on: MDA-MB-468 cells; assay: Three dose response gene expression analysis (qRT-PCR); conditions: 0.1, 1 and 10 µM, 24 h
Description: Total RNA from cell lines was isolated using the RNeasy Mini kit (cat #74104, Qiagen), according to the manufacturer’s instructions. qRT-PCR was performed as described elsewhere[51] with some minor modifications: RNA was reverse transcribed to cDNA using iScript Reverse Transcription Supermix (cat # 1708841, Bio-rad). cDNA was then diluted 1:5 in nuclease free H20. qRT-PCR was performed on a C1000 Touch thermal cycler (Bio-rad) and gene expression was detected with SsoAdvanced Universal SYBR Green Supermix (cat # 1725274, Bio-rad). Gene expression was determined by normalizing to GAPDH mRNA expression levels and fold expression change was calculated using the ΔΔCT method (ΔΔCT = ΔCt sample − Δct control). Primers used in qPCR are shown in Supplemental Table 9.
Adherent breast cancer cells were seeded in 24-well cell culture plates (ThermoFisher, Nunc, Delta surface, cat #144530) and T-ALL cells growing in suspension (Jurkat, RPMI-8402) were seeded in non-adherent 24-well plates (ThermoFisher, Nunc, cat […]). 60.000 cells were seeded and treated with 0.1, 1 and 10 µM of each compound. […] Cells were harvested 24 h post treatment and RNA isolation and gene expression analysis (qRT-PCR) was performed as described above.

[3] = tested on: MDA-MB-231 cells; assay: Immunocytochemistry of NOTCH1, nuclei and giant cell count; design: Average Size nuclei / AVG Average Size nuclei: unit not given here; conditions: for fraction of cells with large nuclei / overall level of NOTCH1 (ICC) / AVG Giant cells/ total nucl (%) / AVG Average Size nuclei / Average Size nuclei / Count (nuclei per field) / Giant cells /field / Giant cells/ total nucl (%): MDA-MB-231, 2 µM; for fraction of cells with large nuclei / overall level of NOTCH1 (ICC): 24 h; for fraction of cells with large nuclei: compared to DMSO, Fig. 8D; for overall level of NOTCH1 (ICC): Fig. 8A; for Average Size nuclei / Count (nuclei per field) / Giant cells /field / Giant cells/ total nucl (%): single images; for cell morphology: overview in comparison to compound C, Supplemental Fig. 9
Description: 20,000 MDA-MB-231 cells were seeded on cover-slides (BD Bioscience), allowed to attach and treated with 2 µM compound for 24 h and 72 h upon reaching 80% confluence. For quantification of NOTCH1 signals and to monitor morphological changes immunocytochemistry staining to localize NOTCH1 was carried out as described above for C2C12 cells. Cellular morphology was visualized with Phalloidin (Thermofisher, cat # A22287), used at 1:2000 dilution and a NOTCH1 antibody used at 1:100 dilution (Cell signalling, cat #D6F11). Images were recorded using a Zeiss LSM 700 laser scanning microscope with a 40 × objective. Identical channel configuration and detector gain settings were used for quantification of fluorescence signals and a minimum of four images were recorded per condition. Secondary antibody control background signals were averaged and subtracted from each image and the same brightness and contrast adjustments were applied to all images before conducting histogram-based quantification of NOTCH1 signals. A 10 × objective was used for assessing morphological changes and a minimum of four and three images at 24 h and 72 h, respectively were recorded for quantification of nuclei count, size and number of giant cells. Images were processed using Fiji (ImageJ) software and objects were separated from background using Otsu thresholding until all nuclei were detectable. Nuclei objects were filled and nuclei particles were measured using size exclusion and circularity filter settings, 10-infinity (size) and 0,1–0,5 (circularity). Overlay images of nuclear stain and Phalloidin were used to manually count and annotate giant cells using Fiji’s cell counter.

[4] = tested on: MDA-MB-468 cells; assay: Growth inhibition, metabolic activity (CellTiter-Glo); conditions: Homo sapiens; MDA-MB-468, six days; read-out: approximated IC50, metabolic activity
Text: as §1, §2

Structure (SMILES) | IC50 [1] | fraction of cells with large nuclei [3] | overall level of NOTCH1 (ICC) [3] | AVG Giant cells/ total nucl (%) ([3]; 24h treatment, DMSO 1.4) | AVG Average Size nuclei ([3]; 24h treatment, DMSO 184.3) | AVG Giant cells/ total nucl (%) ([3]; 72h treatment, DMSO 0.7) | AVG Average Size nuclei ([3]; 72h treatment, DMSO 184.1) | cell morphology [3] | IC50 [4] | other results
CC(C)(C)c1ccc(Oc2ccc(N)cn2)cc1 [CB-103, reference compound] | 0.3 µM | – | – | – | – | – | – | – | – | HES4 expression [2]: upregulation
CC(C)(C(=O)NCC(F)(F)C(F)(F)F)C(=O)N[C@@H]1C(=O)Nc2ccccc2-c2ccccc21 [RO4929097, reference compound] | – | smaller increase | trend towards reduced levels | 1.7% | 170.6 | 1.2% | 205.4 | moderate effect | – | c-MYC expression [2]: did not reduce; Average Size nuclei ([3]; 24h treatment, listed as GSI): 168.5 and 151.9 and 180.3 and 181.9; Count (nuclei per field) ([3]; 24h treatment, listed as GSI): 1431.0 and 1167.0 and 1371.0 and 1390.0; Giant cells /field ([3]; 24h treatment, listed as GSI): 23.0 and 26.0 and 17.0 and 24.0; Giant cells/ total nucl (%) ([3]; 24h treatment, listed as GSI): 1.6% and 2.2% and 1.2% and 1.7%; Average Size nuclei ([3]; 72h treatment, listed as GSI): 177.5 and 237.7 and 201.1; Count (nuclei per field) ([3]; 72h treatment, listed as GSI): 508.0 and 335.0 and 447.0; Giant cells /field ([3]; 72h treatment, listed as GSI): 4.0 and 6.0 and 5.0; Giant cells/ total nucl (%) ([3]; 72h treatment, listed as GSI): 0.8% and 1.8% and 1.1%
Cc1ccc2[nH]c3c(c2c1)CCOC31CCN(Cc2ccccc2-c2ccccc2)CC1 [compound B] | 6.7 µM | – | – | – | – | – | – | – | 1.1 µM | –
COc1cccc(CNc2ccc(N3CCCCC3)cc2)c1OCc1cccs1 [compound C] | – | increased fraction | not affected | 2.4% | 211.1 | 3.8% | 267.6 | strongest effect | 1.7 µM | Average Size nuclei ([3]; 24h treatment): 215.8 and 220.5 and 221.4 and 186.7; Count (nuclei per field) ([3]; 24h treatment): 1118.0 and 1274.0 and 861.0 and 1213.0; Giant cells /field ([3]; 24h treatment): 26.0 and 28.0 and 22.0 and 30.0; Giant cells/ total nucl (%) ([3]; 24h treatment): 2.3% and 2.2% and 2.6% and 2.5%; Average Size nuclei ([3]; 72h treatment): 254.0 and 270.2 and 244.9 and 301.2; Count (nuclei per field) ([3]; 72h treatment): 251.0 and 246.0 and 215.0 and 208.0; Giant cells /field ([3]; 72h treatment): 9.0 and 8.0 and 10.0; Giant cells/ total nucl (%) ([3]; 72h treatment): 3.6% and 3.3% and 3.7% and 4.8%
